From patent US12503713B1, “Stabilization of tryptamines by denaturing enzymes, optimizing ionization states, and controlling confounding variables” (Convergent Health Sciences LLC, priority 2025, dated 2025)

Columns and labels:
[1] = spontaneous dephosphorylation of phosphoryloxytryptamines in phosphate buffers, one hour at 85 degrees Celsius, HPLC at 220 nanometers (Example 1)
[2] = cited from earlier work
laccase enzyme = test: colorimetric assay with a syringaldazine substrate for residual laccase enzyme activity; type: biochemical, Psilocybe cubensis; settings: supernatants of the extracts
Text: The denaturation of relevant laccase enzymes may be assessed, for example, by performing a colorimetric assay with a laccase enzyme substrate such as syringaldazine or 2,2′-azino-bis(3-ethylbenzothiazoline-6-sulfonate) (ABTS). Syringaldazine comprises an aromatic structure with pendant hydroxyl groups, which is chemically similar to the indole of a hydroxytryptamine, and ABTS comprises a benzothiazoline, which is chemically similar to the indole of tryptamines generally. Colorimetric assays performed with a syringaldazine or ABTS substrate therefore provide suitable methods to assess laccase activity that are relevant to this disclosure.
(§1) The molecular weights of the analytes are determined by electrospray ionization mass spectroscopy (ESI-MS) operating in positive ion mode. The supernatants are also used for a colorimetric assay with a para-nitrophenyl phosphate substrate to identify residual phosphatase enzyme activity and for a colorimetric assay with a syringaldazine substrate to identify any residual laccase enzyme activity.

phosphatase enzyme = test: colorimetric assay with a para-nitrophenyl phosphate substrate for residual phosphatase enzyme activity; type: biochemical, Psilocybe cubensis; settings: supernatants of the extracts
Text: The denaturation of relevant phosphatase enzymes may be assessed, for example, by performing a colorimetric assay with a para-nitrophenyl phosphate substrate. Para-nitrophenyl phosphate comprises a phosphorylated aromatic, which is chemically similar to the phosphorylated indole of a phosphoryloxytryptamine. Colorimetric assays performed with a para-nitrophenyl phosphate substrate therefore provide suitable methods to assess […] that are relevant to this disclosure.
as §1

[3] = cited from earlier work; remark: listed apart in the source
[4] = pH of 2.0 relative to pH of 3.0
[5] = pH of 7.0 relative to pH of 6.0
[6] = pH of 3.0 relative to pH of 2.0
[7] = pH of 6.0 relative to pH of 7.0

NCCc1c[nH]c2cccc(O)c12 [4-HT, 3-(2-aminoethyl)-1H-indol-4-ol]
absorbance detected for the hydroxytryptamine [1, 4]: greater absorbance | absorbance detected for the hydroxytryptamine [1, 5]: greater absorbance

C[N+](C)(C)CCc1c[nH]c2cccc(O)c12 [4-hydroxy-TMT, [2-(4-hydroxy-1H-indol-3-yl)ethyl]-trimethylazanium]
absorbance detected for the hydroxytryptamine [1, 4]: greater absorbance | absorbance detected for the hydroxytryptamine [1, 5]: greater absorbance

O=C(O)Cc1c[nH]c2ccccc12 [Indole-3-acetic acid, indole-3-acetic acid]
solubility in water [2]: insoluble in water

C[N+](C)(C)CCc1c[nH]c2cccc(OP(=O)(O)O)c12 [aeruginascin, [2-(4-phosphonooxy-1H-indol-3-yl)ethyl]-trimethylazanium]
absorbance detected for the phosphoryloxytryptamine [1, 6]: Greater absorbance | absorbance detected for the phosphoryloxytryptamine [1, 7]: Greater absorbance

N.N.O=S(=O)(O)O [ammonium sulfate]
laccase enzyme activity relative to the water control (laccase enzyme): significantly less | phosphatase enzyme activity relative to the water control (phosphatase enzyme): significantly less

CNCCc1c[nH]c2cccc(OP(=O)(O)O)c12 [baeocystin, [2-(4-phosphonooxy-1H-indol-3-yl)ethyl]-methylazanium]
absorbance detected for the phosphoryloxytryptamine [1, 6]: Greater absorbance | absorbance detected for the phosphoryloxytryptamine [1, 7]: Greater absorbance

Cl.N=C(N)N [guanidinium, guanidinium chloride]
laccase enzyme activity relative to the water control (laccase enzyme): significantly less | phosphatase enzyme activity relative to the water control (phosphatase enzyme): significantly less

NCCc1c[nH]c2cccc(OP(=O)(O)O)c12 [norbaeocystin, 2-(4-phosphonooxy-1H-indol-3-yl)ethylazanium]
absorbance detected for the phosphoryloxytryptamine [1, 6]: Greater absorbance | absorbance detected for the phosphoryloxytryptamine [1, 7]: Greater absorbance

CNCCc1c[nH]c2cccc(O)c12 [norpsilocin, 3-[2-(methylamino)ethyl]-1H-indol-4-ol]
absorbance detected for the hydroxytryptamine [1, 4]: greater absorbance | absorbance detected for the hydroxytryptamine [1, 5]: greater absorbance

CCCCCCCCO[C@@H]1O[C@H](CO)[C@@H](O)[C@H](O)[C@H]1O [octyl glucoside, octyl β-D-glucopyranoside]
laccase enzyme activity relative to the water control (laccase enzyme): significantly less | phosphatase enzyme activity relative to the water control (phosphatase enzyme): significantly less

CN(C)CCc1c[nH]c2cccc(O)c12 [psilocin, 3-[2-(dimethylamino)ethyl]-1H-indol-4-ol]
absorbance detected for the hydroxytryptamine [1, 4]: greater absorbance | absorbance detected for the hydroxytryptamine [1, 5]: greater absorbance

CN(C)CCc1c[nH]c2cccc(OP(=O)(O)O)c12 [psilocybin]
pKa of the azanium of psilocybin ([3]; conjugate acid of the amino): about 10.4 | pKa of the dihydrogen phosphate of psilocybin (lowest pKa) ([3]; first phosphate pKa): about 1.3

CCCCCCCCCCCCOS(=O)(=O)[O-].[Na+] [sodium dodecyl sulfate]
laccase enzyme activity relative to the water control (laccase enzyme): significantly less | phosphatase enzyme activity relative to the water control (phosphatase enzyme): significantly less

OCCc1c[nH]c2ccccc12 [tryptophol]
solubility in water [2]: insoluble in water

NC(N)=O [urea]
laccase enzyme activity relative to the water control (laccase enzyme): significantly less | phosphatase enzyme activity relative to the water control (phosphatase enzyme): significantly less

Chitin
solubility in water [2]: insoluble in water

polyethylene glycol 4-(2,4,4-trimethylpent-2-yl)phenyl ether [Triton X-100]
laccase enzyme activity relative to the water control (laccase enzyme): significantly less | phosphatase enzyme activity relative to the water control (phosphatase enzyme): significantly less
